Reference: patent publication US10125134B2 (Mirati Therapeutics, Inc., priority 2016, dated 2018)
Where two headings read alike, the source gives them in different places.

How the values were obtained:
KRas G12C = KRas G12C (Homo sapiens, UniProt P01116, C118S/C51S/C80L/G12C); assay: KRas G12C Modification Assay (LCMS detection of covalent adduct); type: binding; conditions: normalized percent of control; tested at 5 μM concentration for 3 hours
Experimental: A 10 μL aliquot of each protein solution was then transferred to a 384 well microtiter plate. Initial compound stocks were generated at fifty times their desired final assay concentration in DMSO.
Exemplary compounds of Formula (I) were diluted 25-fold into K-Ras Assay Buffer to a final of two times their final concentration. A 10 μL aliquot of each diluted compound solution was then added to each of the protein solutions in the microtiter plate to initiate reaction. […] At each time point, the reactions were quenched with 20 μL of a 25 mM acetic acid solution. […] Once all reactions were quenched, the plates were heat sealed and the samples were injected into a LC/MS system for data acquisition.
Samples were injected in their liquid phase onto a C-3 reverse phase column to remove assay buffer and prepare the samples for mass spectrometer. The proteins were eluted from the column using an acetonitrile gradient and fed directly into the mass analyzer. Initial raw data analysis took place in Agilent MassHunter software immediately post data acquisition.
Raw data analysis of the intact protein was exclusively a deconvolution of the multiple charge states of each protein in solution using a maximum entropy deconvolution provided in Mass Hunter. To minimize complexity, only the data over limited mass ranges were considered for analysis, with a minimum of one Dalton mass step intervals. The heights of all masses identified during raw data analysis were exported to be further analyzed in Spotfire® data analysis software.
Final data analysis was a multistep process in the Spotfire® data analysis software package. Briefly, each protein mass was calculated as a percent of the total signal of that sample, that percentage was then normalized to the percentage of signal of the protein in the absence of reactive compounds. Those normalized signals were reported as normalized percent of control (POC). […] Key: “A”≤25% POC; “B”>25% POC−≤50% POC; “C”>50% POC and ND=not determined.

[1] = test system: NCI-H358 cells (express KRas G12C), Phospho-ERK; assay: Cellular inhibition of KRas G12C: Phospho-ERK in NCI-H358 cells; type: cell-based; conditions: Homo sapiens, pERK(Thr202/Tyr204) normalized with GAPDH, NCI-H358 cells, 3 hours, read-out: IC50
Experimental: The cellular inhibition of KRAs G12C by exemplary compounds of the present invention was determined by measuring the amount of a downstream marker of KRas activity, phosphorylated ERK (“Phospho-ERK”).
Cells were plated in poly-D-Lysine coated 96-well plates at a concentration of 50,000 cells/well and allowed to attach for 8-12 hours. Diluted compounds were then added at a final concentration of 0.5% DMSO. After 3 hours, the medium was removed, 150 μL of 4% formaldehyde was added and the plates were incubated for 20 minutes. The plates were washed with PBS, and permeabilized using 150 μL of ice cold 100% methanol for 10 minutes. Non-specific antibody binding to the plates was blocked using 100 μL Licor Blocking Buffer (Li-Cor Biotechnology, Lincoln Nebr.) for 1 hour at room temperature. Positive control samples and samples lacking cells were parallel processed with test samples as standards.
The amount Phospho-ERK was determined using an antibody specific for the phosphorylated form of ERK and compared to the amount of GAPDH. […] The plates were incubated for 2 hours at room temperature. The plates were washed with PBS+0.05% Tween 20.
Secondary antibodies used to visualize primary antibodies were added as follows: Anti-rabbit-680 diluted 1:1000 and Anti-mouse-800 diluted 1:1000 in Licor Block+0.05% Tween 20 and incubated for 1 hour at room temperature. The plates were washed with PBS+0.05% Tween 20. A 100 μL aliquot of PBS was added to each well and the plates were read on a LICOR AERIUS plate reader.
The pERK(Thr202/Tyr204) signal was normalized with the GAPDH signal and percent of DMSO control values were calculated. IC50 values were generated using a 4 parameter fit of the dose response curve. Key: “A”≥0.0001−≤1 μM; and “B”>1 μM.

Row | SMILES | POC (KRas G12C) | IC50 ([1]; NCI-H358, 3 h) [nM] | IC50 [1] [nM]
1 | C=CC(=O)N1CCN(c2ncnc3c2CCN(c2cc(O)ccc2F)C3)CC1 [Example 5, 1-(4-(7-(2-fluoro-5-hydroxyphenyl)-5,6,7,8-tetrahydropyrido[3,4-d]pyrimidin-4-yl)piperazin-1-yl)prop-2-en-1-one] | A (“A”≤25% POC) | > 1000 | –
2 | C=CC(=O)N1CCN(c2ncnc3c2CC(C)N(c2cc(O)cc4ccccc24)C3)CC1 (centres unmarked) [Example 6, 1-(4-(7-(3-hydroxynaphthalen-1-yl)-6-methyl-5,6,7,8-tetrahydropyrido[3,4-d]pyrimidin-4-yl)piperazin-1-yl)prop-2-en-1-one] | B (“B”>25% POC−≤50% POC) | – | > 1000
3 | C=CC(=O)N1CCN(c2ncnc3c2CCN(c2c(C)ccc4[nH]ncc24)C3)CC1 [Example 7, 1-(4-(7-(5-methyl-1H-indazol-4-yl)-5,6,7,8-tetrahydropyrido[3,4-d]pyrimidin-4-yl)piperazin-1-yl)prop-2-en-1-one] | A (“A”≤25% POC) | > 1000 | –
4 | C=CC(=O)N1CCN(c2nc(O[C@@H](C)CN(C)C)nc3c2CCN(c2cc(O)cc4ccccc24)C3)CC1 [Example 8, (S)-1-(4-(2-((1-(dimethylamino)propan-2-yl)oxy)-7-(3-hydroxynaphthalen-1-yl)-5,6,7,8-tetrahydropyrido[3,4-d]pyrimidin-4-yl)piperazin-1-yl)prop-2-en-1-one] | B (“B”>25% POC−≤50% POC) | > 1000 | –
5 | C=CC(=O)N1CCN(c2nc(OCCN(C)C)nc3c2CCN(c2cc(O)cc4ccccc24)C3)CC1 [Example 9, 1-(4-(2-(2-(dimethylamino)ethoxy)-7-(3-hydroxynaphthalen-1-yl)-5,6,7,8-tetrahydropyrido[3,4-d]pyrimidin-4-yl)piperazin-1-yl)prop-2-en-1-one] | C (“C”>50% POC) | > 1000 | –
6 | C=CC(=O)N1CCN(c2nc(OCCCN(C)C)nc3c2CCN(c2cc(O)cc4ccccc24)C3)CC1 [Example 10, 1-(4-(2-(3-(dimethylamino)propoxy)-7-(3-hydroxynaphthalen-1-yl)-5,6,7,8-tetrahydropyrido[3,4-d]pyrimidin-4-yl)piperazin-1-yl)prop-2-en-1-one] | C (“C”>50% POC) | > 1000 | –
7 | C=CC(=O)N1CCN(c2nc(OC(C)CN(C)C)nc3c2CCN(c2cc(O)cc4ccccc24)C3)CC1 (centres unmarked) [Example 11, 1-(4-(2-((1-(dimethylamino)propan-2-yl)oxy)-7-(3-hydroxynaphthalen-1-yl)-5,6,7,8-tetrahydropyrido[3,4-d]pyrimidin-4-yl)piperazin-1-yl)prop-2-en-1-one] | C (“C”>50% POC) | 0.1 to 1000 | –
8 | C=CC(=O)N1CCN(c2nc(N3CCN(C)CC3)nc3c2CCN(c2cc(O)cc4ccccc24)C3)CC1 [Example 12, 1-(4-(7-(3-hydroxynaphthalen-1-yl)-2-(4-methylpiperazin-1-yl)-5,6,7,8-tetrahydropyrido[3,4-d]pyrimidin-4-yl)piperazin-1-yl)prop-2-en-1-one] | C (“C”>50% POC) | > 1000 | –
9 | C=CC(=O)N1CCN(c2nc(N3CCC(N(C)C)C3)nc3c2CCN(c2cc(O)cc4ccccc24)C3)CC1 (centres unmarked) [Example 13, 1-(4-(2-(3-(dimethylamino)pyrrolidin-1-yl)-7-(3-hydroxynaphthalen-1-yl)-5,6,7,8-tetrahydropyrido[3,4-d]pyrimidin-4-yl)piperazin-1-yl)prop-2-en-1-one] | C (“C”>50% POC) | > 1000 | –
10 | C=CC(=O)N1CCN(c2nc(OCCN(C)C)nc3c2CCN(c2cc(O)cc4ccccc24)C3)C[C@@H]1C [Example 14] | C (“C”>50% POC) | > 1000 | –
11 | C=CC(=O)N1CCN(c2nc(OCCN(C)C)nc3c2CCN(c2cc(O)cc4ccccc24)C3)C[C@H]1C [Example 15, (R)-1-(4-(2-(2-(dimethylamino)ethoxy)-7-(3-hydroxynaphthalen-1-yl)-5,6,7,8-tetrahydropyrido[3,4-d]pyrimidin-4-yl)-2-methylpiperazin-1-yl)prop-2-en-1-one] | C (“C”>50% POC) | > 1000 | –
12 | C=CC(=O)N1CC2(C1)CN(c1nc(OCCN(C)C)nc3c1CCN(c1cc(O)cc4ccccc14)C3)C2 [Example 16, 1-(6-(2-(2-(dimethylamino)ethoxy)-7-(3-hydroxynaphthalen-1-yl)-5,6,7,8-tetrahydropyrido[3,4-d]pyrimidin-4-yl)-2,6-diazaspiro[3.3]heptan-2-yl)prop-2-en-1-one] | C (“C”>50% POC) | > 1000 | –
13 | C=CC(=O)N1CCN(c2nc(N3CCC(N(C)C)CC3)nc3c2CCN(c2cc(O)cc4ccccc24)C3)CC1 [Example 17, 1-(4-(2-(4-(dimethylamino)piperidin-1-yl)-7-(3-hydroxynaphthalen-1-yl)-5,6,7,8-tetrahydropyrido[3,4-d]pyrimidin-4-yl)piperazin-1-yl)prop-2-en-1-one] | B (“B”>25% POC−≤50% POC) | > 1000 | –
14 | C=CC(=O)N1CC2(C1)CN(c1nc(OC(C)CN(C)C)nc3c1CCN(c1cc(O)cc4ccccc14)C3)C2 (centres unmarked) [Example 18, 1-(6-(2-((1-(dimethylamino)propan-2-yl)oxy)-7-(3-hydroxynaphthalen-1-yl)-5,6,7,8-tetrahydropyrido[3,4-d]pyrimidin-4-yl)-2,6-diazaspiro[3.3]heptan-2-yl)prop-2-en-1-one] | C (“C”>50% POC) | – | > 1000
15 | C=CC(=O)N1CCN(c2nc(O[C@H](C)CN(C)C)nc3c2CCN(c2cc(O)cc4ccccc24)C3)CC1 [Example 19, (R)-1-(4-(2-((1-(dimethylamino)propan-2-yl)oxy)-7-(3-hydroxynaphthalen-1-yl)-5,6,7,8-tetrahydropyrido[3,4-d]pyrimidin-4-yl)piperazin-1-yl)prop-2-en-1-one] | C (“C”>50% POC) | 0.1 to 1000 | –
16 | C=CC(=O)N1CC2(C1)CN(c1nc(OCCCN(C)C)nc3c1CCN(c1cc(O)cc4ccccc14)C3)C2 [Example 20, 1-(6-(2-(3-(dimethylamino)propoxy)-7-(3-hydroxynaphthalen-1-yl)-5,6,7,8-tetrahydropyrido[3,4-d]pyrimidin-4-yl)-2,6-diazaspiro[3.3]heptan-2-yl)prop-2-en-1-one] | C (“C”>50% POC) | > 1000 | –
17 | C=CC(=O)N1CCN(c2nc(OC(C)CCN(C)C)nc3c2CCN(c2cc(O)cc4ccccc24)C3)CC1 (centres unmarked) [Example 21, 1-(4-(2-((4-(dimethylamino)butan-2-yl)oxy)-7-(3-hydroxynaphthalen-1-yl)-5,6,7,8-tetrahydropyrido[3,4-d]pyrimidin-4-yl)piperazin-1-yl)prop-2-en-1-one] | C (“C”>50% POC) | 0.1 to 1000 | –
18 | C=CC(=O)N1CCN(c2nc(OC3CCN(C)CC3)nc3c2CCN(c2cc(O)cc4ccccc24)C3)CC1 [Example 22, 1-(4-(7-(3-hydroxynaphthalen-1-yl)-2-((1-methylpiperidin-4-yl)oxy)-5,6,7,8-tetrahydropyrido[3,4-d]pyrimidin-4-yl)piperazin-1-yl)prop-2-en-1-one] | C (“C”>50% POC) | > 1000 | –
19 | C=CC(=O)N1CCN(c2nc(OC3CCN(C)C3)nc3c2CCN(c2cc(O)cc4ccccc24)C3)CC1 (centres unmarked) [Example 23, 1-(4-(7-(3-hydroxynaphthalen-1-yl)-2-((1-methylpyrrolidin-3-yl)oxy)-5,6,7,8-tetrahydropyrido[3,4-d]pyrimidin-4-yl)piperazin-1-yl)prop-2-en-1-one] | C (“C”>50% POC) | > 1000 | –
